Test results from the NIST ThermoML archive (doi:10.1021/je060271a).

Conditions: 323.15 K, Liquid, Vibrating tube method

CCCCC(=O)OCC(COC(=O)CCCC)(COC(=O)CCCC)COC(=O)CCCC [pentaerythritol tetrapentanoate]
Conditions | mass density [kg/m3]
15928 kPa | 1005.6
15948 kPa | 1005.6
15968 kPa | 1005.5
15988 kPa | 1005.5
16012 kPa | 1005.6
16032 kPa | 1005.7
16056 kPa | 1005.6
16076 kPa | 1005.7
16096 kPa | 1005.7
16116 kPa | 1005.7
16141 kPa | 1005.7
16161 kPa | 1005.6
16185 kPa | 1005.7
16205 kPa | 1005.7
16227 kPa | 1005.7
16252 kPa | 1005.7
16273 kPa | 1005.7
16293 kPa | 1005.7
16318 kPa | 1005.8
16339 kPa | 1005.8
16360 kPa | 1005.8
16385 kPa | 1005.8
16406 kPa | 1006
16427 kPa | 1005.8
16453 kPa | 1005.9
16474 kPa | 1006
16495 kPa | 1005.9
16521 kPa | 1005.9
16542 kPa | 1006
16564 kPa | 1006
16586 kPa | 1006
16612 kPa | 1006
16634 kPa | 1006.1
16660 kPa | 1006.1
16681 kPa | 1006
16704 kPa | 1006.1
16730 kPa | 1006.2
16752 kPa | 1006.1
16774 kPa | 1006.1
16800 kPa | 1006.1
16823 kPa | 1006.1
16845 kPa | 1006.2
16872 kPa | 1006.2
16894 kPa | 1006.1
16917 kPa | 1006.2
16944 kPa | 1006.3
16967 kPa | 1006.3
16990 kPa | 1006.2
17017 kPa | 1006.1
17040 kPa | 1006.2
17063 kPa | 1006.2
17090 kPa | 1006.4
17114 kPa | 1006.3
17138 kPa | 1006.4
17161 kPa | 1006.3
17189 kPa | 1006.4
17212 kPa | 1006.4
17236 kPa | 1006.4
17264 kPa | 1006.4
17288 kPa | 1006.4
17312 kPa | 1006.4
17335 kPa | 1006.5
17364 kPa | 1006.5
17388 kPa | 1006.6
17412 kPa | 1006.6
17441 kPa | 1006.5
17467 kPa | 1006.5
17491 kPa | 1006.5
17520 kPa | 1006.6
17544 kPa | 1006.6
17568 kPa | 1006.6
17593 kPa | 1006.6
17623 kPa | 1006.7
17647 kPa | 1006.7
17672 kPa | 1006.7
17702 kPa | 1006.8
17726 kPa | 1006.7
17756 kPa | 1006.6
17781 kPa | 1006.7
17807 kPa | 1006.7
17832 kPa | 1006.7
17862 kPa | 1006.8
17887 kPa | 1006.9
17913 kPa | 1006.7
17944 kPa | 1006.8
17969 kPa | 1006.8
18000 kPa | 1006.9
18025 kPa | 1006.8
18051 kPa | 1006.9
18077 kPa | 1006.9
18108 kPa | 1007
18134 kPa | 1007
18161 kPa | 1007.1
18192 kPa | 1007
18218 kPa | 1007
18249 kPa | 1007.1
18276 kPa | 1007.2
18303 kPa | 1007.1
18329 kPa | 1007.1
18361 kPa | 1007.1
18388 kPa | 1007.1
18415 kPa | 1007.1
18447 kPa | 1007.2
18475 kPa | 1007.2
18502 kPa | 1007.2
18530 kPa | 1007.2
18563 kPa | 1007.2
18590 kPa | 1007.3
18618 kPa | 1007.4
18651 kPa | 1007.4
18679 kPa | 1007.4
18707 kPa | 1007.3
18740 kPa | 1007.4
18768 kPa | 1007.3
18797 kPa | 1007.4
18831 kPa | 1007.4
18859 kPa | 1007.4
18888 kPa | 1007.4
18917 kPa | 1007.4
18952 kPa | 1007.5
18980 kPa | 1007.5
19014 kPa | 1007.5
19043 kPa | 1007.6
19072 kPa | 1007.5
19101 kPa | 1007.7
19136 kPa | 1007.6
19166 kPa | 1007.7
19196 kPa | 1007.7
19232 kPa | 1007.6
19262 kPa | 1007.7
19292 kPa | 1007.8
19322 kPa | 1007.7
19388 kPa | 1007.8
19515 kPa | 1007.8
19552 kPa | 1007.8
19582 kPa | 1007.8
19613 kPa | 1008
19650 kPa | 1007.9
19682 kPa | 1008
19716 kPa | 1008
19747 kPa | 1008.1
19778 kPa | 1007.9
19817 kPa | 1008
19848 kPa | 1008
19887 kPa | 1008
19919 kPa | 1008
19952 kPa | 1008.1
19992 kPa | 1008.1
20023 kPa | 1008.2
20052 kPa | 1008.2
20085 kPa | 1008.2
20113 kPa | 1008.2
20143 kPa | 1008.2
20171 kPa | 1008.3
20199 kPa | 1008.2
20232 kPa | 1008.3
20260 kPa | 1008.2
20288 kPa | 1008.4
20321 kPa | 1008.4
20349 kPa | 1008.4
